From ChEMBL document CHEMBL6087472, “Development and Discovery of a Selective Degrader of Casein Kinases 1 δ/ε” (J Med Chem, 2025)
Active and inactive are the calls of the source. The calls are words filed in the database; no cut-off is given here.

Columns and labels:
[1] = target: T1, von Hippel-Lindau disease tumor suppressor/Casein kinase I isoform epsilon (Homo sapiens) (UniProt P49674+P40337); experiment: PROTAC activity at VHL/CK1 epsilon in HEK293 cells assessed as induction of degradation of CK1 epsilon measured after 6 hrs by Western blot analysis; assay type: cell-based; settings: dose 0.01-30 µM
[2] = target: T2, von Hippel-Lindau disease tumor suppressor/Casein kinase I isoform alpha (Homo sapiens) (UniProt P48729+P40337); experiment: PROTAC activity at VHL/Hibit-fused CK1 alpha in human MV4-11 cells assessed as degradation of CK1-alpha incubated for 6 hrs by Nano-Glo HiBiT assay relative to control; assay type: cell-based
[3] = target: T3, von Hippel-Lindau disease tumor suppressor/Casein kinase I isoform delta (Homo sapiens, UniProt P48730+P40337); experiment: PROTAC activity at VHL/full length N-terminal Nano-luc fused CK1 delta (unknown origin) transfected in HEK293T cells incubated for 2 hrs followed by substrate addition by NanoBRET target engagement assay; assay type: cell-based
[4] = target: T3, von Hippel-Lindau disease tumor suppressor/Casein kinase I isoform delta; experiment: PROTAC activity at VHL/CK1 delta in HEK293 cells assessed as induction of degradation of CK1 delta at 0.3 to 1.0 uM measured after 6 hrs by Western blot analysis relative to control; assay type: cell-based; settings: dose 0.3-1 µM
[5] = target: T3, von Hippel-Lindau disease tumor suppressor/Casein kinase I isoform delta; experiment: PROTAC activity at VHL/CK1 delta in human U87 cells assessed as induction of degradation of CK1 delta by measuring maximum efficacy at 1 uM measured after 6 hrs relative to control; assay type: cell-based
[6] = target: Casein kinase I isoform delta (Homo sapiens) (UniProt P48730); experiment: Binding affinity to […] in human HEK293 cells assessed as target engagement at >3 uM; assay type: cell-based
[7] = target: T2, von Hippel-Lindau disease tumor suppressor/Casein kinase I isoform alpha (Homo sapiens); experiment: PROTAC activity at VHL/Hibit-fused CK1 alpha in human MV4-11 cells assessed as degradation of CK1-alpha at 10 to 30 uM incubated for 6 hrs by Western blot analysis; assay type: cell-based; settings: dose 10-30 µM
[8] = target: T2, von Hippel-Lindau disease tumor suppressor/Casein kinase I isoform alpha (Homo sapiens); experiment: PROTAC activity at VHL/CK1 alpha in HEK293 cells assessed as induction of degradation of CK1 alpha at high concentration measured after 6 hrs by Western blot analysis relative to control; assay type: cell-based
[9] = target: T3, von Hippel-Lindau disease tumor suppressor/Casein kinase I isoform delta; experiment: PROTAC activity at VHL/CK1 delta in human MDA-MB-231 cells assessed as induction of degradation of CK1 delta at 1 uM measured after 6 hrs; assay type: cell-based
HEK293 = experiment: Effect on DVL3 phosphorylation in human HEK293 cells at 1 uM measured after 6 hrs by Western blot analysis; assay type: functional, cell-based
[10] = target: T3, von Hippel-Lindau disease tumor suppressor/Casein kinase I isoform delta; experiment: PROTAC activity at VHL/HiBit fused CK1 delta in human MV4-11 cells assessed as fold change at 2.5 uM measured after 6 hrs in presence of MLN4924 by Nano-Glo HiBit assay; assay type: cell-based
[11] = target: T2, von Hippel-Lindau disease tumor suppressor/Casein kinase I isoform alpha (Homo sapiens); experiment: PROTAC activity at VHL/CK1 alpha in human U87 cells assessed as induction of degradation of CK1 alpha at 1 uM measured after 6 hrs; assay type: cell-based
[12] = target: T3, von Hippel-Lindau disease tumor suppressor/Casein kinase I isoform delta; experiment: PROTAC activity at VHL/CK1 delta in HEK293 cells assessed as induction of degradation of CK1 delta by measuring maximum efficacy at 5 to 10 uM measured after 6 hrs by Western blot analysis relative to control; assay type: cell-based; settings: dose 5-10 µM
[13] = target: T3, von Hippel-Lindau disease tumor suppressor/Casein kinase I isoform delta; experiment: PROTAC activity at VHL/HiBit fused CK1 delta in human MV4-11 cells assessed as fold change at 0.63 uM measured after 6 hrs by Nano-Glo HiBit assay; assay type: cell-based
[14] = target: T1, von Hippel-Lindau disease tumor suppressor/Casein kinase I isoform epsilon (Homo sapiens); experiment: PROTAC activity at VHL/CK1 epsilon in human HEK293 cells assessed as degradation of CK1 epsilon at 3 to 20 uM incubated overnight followed by compound washout and measured after 1 hr by Nano-Glo HiBiT assay; assay type: cell-based; settings: dose 3-20 µM
[15] = target: T2, von Hippel-Lindau disease tumor suppressor/Casein kinase I isoform alpha (Homo sapiens); experiment: PROTAC activity at VHL/CK1 alpha in human MV4-11 cells assessed as degradation of CK1-alpha at 10 to 30 uM incubated for 6 hrs by Western blot analysis; assay type: cell-based; settings: dose 10-30 µM
[16] = target: T3, von Hippel-Lindau disease tumor suppressor/Casein kinase I isoform delta; experiment: PROTAC activity at VHL/CK1 delta in human U87 cells assessed as induction of degradation of CK1 delta at 1 uM measured after 6 hrs; assay type: cell-based
[17] = target: T3, von Hippel-Lindau disease tumor suppressor/Casein kinase I isoform delta; experiment: PROTAC activity at VHL/HiBit fused CK1 delta in human MV4-11 cells assessed as fold change at 0.63 uM measured after 6 hrs in presence of MLN4924 by Nano-Glo HiBit assay; assay type: cell-based
[18] = target: T3, von Hippel-Lindau disease tumor suppressor/Casein kinase I isoform delta; experiment: PROTAC activity at VHL/CK1 delta in HEK293 cells assessed as induction of degradation of CK1 delta at 3 uM measured after 6 hrs by Western blot analysis relative to control; assay type: cell-based
[19] = target: T3, von Hippel-Lindau disease tumor suppressor/Casein kinase I isoform delta; experiment: PROTAC activity at VHL/Hibit-fused CK1 delta in human MV4-11 cells assessed as degradation of CK1-delta at 2.5 uM measured upto 12 hrs in presence of cycloheximide by Nano-Glo HiBiT assay relative to control; assay type: cell-based
[20] = target: T1, von Hippel-Lindau disease tumor suppressor/Casein kinase I isoform epsilon (Homo sapiens); experiment: PROTAC activity at VHL/Hibit-fused CK1 epsilon in human MV4-11 cells assessed as degradation of CK1 epsilon at 5 to 10 uM incubated for 6 hrs by Western blot analysis; assay type: cell-based; settings: dose 5-10 µM
[21] = target: T1, von Hippel-Lindau disease tumor suppressor/Casein kinase I isoform epsilon (Homo sapiens); experiment: PROTAC activity at VHL/CK1 epsilon in human MDA-MB-231 cells assessed as induction of degradation of CK1 epsilon by measuring maximum efficacy at 1 uM measured after 6 hrs relative to control; assay type: cell-based
MV4-11 = experiment: Cytotoxicity in human MV4-11 cells at >10 uM measured after 72 hrs by alamar blue assay; assay type: functional, cell-based
[22] = target: T2, von Hippel-Lindau disease tumor suppressor/Casein kinase I isoform alpha (Homo sapiens); experiment: PROTAC activity at VHL/CK1 alpha in HEK293 cells assessed as induction of degradation of CK1 alpha by measuring maximum efficacy at 5 to 10 uM measured after 6 hrs by Western blot analysis relative to control; assay type: cell-based; settings: dose 5-10 µM
[23] = target: T3, von Hippel-Lindau disease tumor suppressor/Casein kinase I isoform delta; experiment: PROTAC activity at VHL/CK1 delta in human MV4-11 cells assessed as degradation of CK1-delta at 5 to 10 uM incubated for 6 hrs by Western blot analysis; assay type: cell-based; settings: dose 5-10 µM
[24] = target: T1, von Hippel-Lindau disease tumor suppressor/Casein kinase I isoform epsilon (Homo sapiens); experiment: PROTAC activity at VHL/CK1 epsilon in HEK293 cells assessed as induction of degradation of CK1 epsilon at upto 20 uM pretreated with LGK974 followed by compound addition and measured after 6 hrs by Western blot analysis; assay type: cell-based
[25] = target: T3, von Hippel-Lindau disease tumor suppressor/Casein kinase I isoform delta; experiment: PROTAC activity at VHL/HiBit fused CK1 delta in human MV4-11 cells assessed as fold change at 10 uM measured after 6 hrs by Nano-Glo HiBit assay; assay type: cell-based
[26] = target: T3, von Hippel-Lindau disease tumor suppressor/Casein kinase I isoform delta; experiment: PROTAC activity at VHL/HiBit fused CK1 delta in human MV4-11 cells assessed as fold change at 2.5 uM measured after 6 hrs by Nano-Glo HiBit assay; assay type: cell-based
[27] = target: T3, von Hippel-Lindau disease tumor suppressor/Casein kinase I isoform delta; experiment: PROTAC activity at VHL/CK1 delta in HEK293 cells assessed as induction of degradation of CK1 delta measured after 6 hrs by Western blot analysis; assay type: cell-based; settings: dose 0.01-30 µM
[28] = target: T2, von Hippel-Lindau disease tumor suppressor/Casein kinase I isoform alpha (Homo sapiens); experiment: PROTAC activity at VHL/CK1 alpha in human MV4-11 cells assessed as induction of degradation of CK1 alpha by measuring maximum efficacy at 10 uM measured after 12 hrs by HiBit assay relative to control; assay type: cell-based
[29] = target: T2, von Hippel-Lindau disease tumor suppressor/Casein kinase I isoform alpha (Homo sapiens); experiment: PROTAC activity at VHL/CK1 alpha in HEK293 cells assessed as induction of degradation of CK1 alpha at 10 uM measured after 6 hrs by Western blot analysis relative to control; assay type: cell-based

T2 sequence (P40337 whole entry, looked up, the tested form may be a part, canonical isoform): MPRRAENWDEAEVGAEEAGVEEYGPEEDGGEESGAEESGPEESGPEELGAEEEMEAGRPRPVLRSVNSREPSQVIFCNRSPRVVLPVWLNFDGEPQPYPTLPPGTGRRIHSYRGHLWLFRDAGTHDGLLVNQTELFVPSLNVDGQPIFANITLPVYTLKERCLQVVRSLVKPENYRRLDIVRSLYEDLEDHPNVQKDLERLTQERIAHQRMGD
T2 sequence (P48729 whole entry, looked up, the tested form may be a part, canonical isoform): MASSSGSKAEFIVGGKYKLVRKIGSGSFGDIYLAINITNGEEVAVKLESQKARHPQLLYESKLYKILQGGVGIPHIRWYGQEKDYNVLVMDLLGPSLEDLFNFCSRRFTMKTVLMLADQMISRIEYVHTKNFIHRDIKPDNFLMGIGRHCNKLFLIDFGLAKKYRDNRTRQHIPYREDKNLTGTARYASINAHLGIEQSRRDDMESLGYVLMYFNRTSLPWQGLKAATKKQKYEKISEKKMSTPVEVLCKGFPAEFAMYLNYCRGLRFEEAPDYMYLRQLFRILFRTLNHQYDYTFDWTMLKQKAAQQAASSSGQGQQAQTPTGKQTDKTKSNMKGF
T1 sequence (P40337 whole entry, looked up, the tested form may be a part, canonical isoform): as the sequence (P40337 whole entry, looked up, the tested form may be a part, canonical isoform) above
T1 sequence (P49674 whole entry, looked up, the tested form may be a part, canonical isoform): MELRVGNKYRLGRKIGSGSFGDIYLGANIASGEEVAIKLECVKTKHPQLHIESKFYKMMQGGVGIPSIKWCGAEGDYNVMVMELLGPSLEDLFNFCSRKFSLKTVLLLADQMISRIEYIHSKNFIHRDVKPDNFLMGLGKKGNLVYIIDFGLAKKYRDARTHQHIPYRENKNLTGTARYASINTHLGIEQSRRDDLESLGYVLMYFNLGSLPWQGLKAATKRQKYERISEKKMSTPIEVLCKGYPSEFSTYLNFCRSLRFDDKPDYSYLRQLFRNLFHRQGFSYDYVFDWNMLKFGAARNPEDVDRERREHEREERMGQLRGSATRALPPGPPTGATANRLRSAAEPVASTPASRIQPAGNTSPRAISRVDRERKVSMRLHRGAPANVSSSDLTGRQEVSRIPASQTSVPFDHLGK
T3 sequence (P40337 whole entry, looked up, the tested form may be a part, canonical isoform): as the sequence (P40337 whole entry, looked up, the tested form may be a part, canonical isoform) above
T3 sequence (P48730 whole entry, looked up, the tested form may be a part, canonical isoform): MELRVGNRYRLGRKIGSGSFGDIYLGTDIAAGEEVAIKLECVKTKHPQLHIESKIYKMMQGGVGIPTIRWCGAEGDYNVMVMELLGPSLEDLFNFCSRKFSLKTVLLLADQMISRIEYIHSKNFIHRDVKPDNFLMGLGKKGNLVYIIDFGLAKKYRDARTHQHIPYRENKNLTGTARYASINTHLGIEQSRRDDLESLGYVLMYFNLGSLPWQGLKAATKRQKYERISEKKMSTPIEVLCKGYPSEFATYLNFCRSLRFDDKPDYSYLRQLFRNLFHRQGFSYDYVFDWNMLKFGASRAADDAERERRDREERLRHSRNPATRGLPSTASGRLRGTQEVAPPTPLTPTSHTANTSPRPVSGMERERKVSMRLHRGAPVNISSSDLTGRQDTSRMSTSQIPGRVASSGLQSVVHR
Casein kinase I isoform delta (Homo sapiens), sequence (P48730 whole entry, looked up, the tested form may be a part, canonical isoform): as above

Activity [1]: Dose-dependent-effect | Emax [2]: 35.1% | Emax [3]: 3.2% | Activity [4]: 100% | Emax [5]: > 50% | Activity [6]: Active | Activity [9]: Active | fold change (FC) [10]: 0.85 | Activity [11]: inactive | Emax [12]: > 50% | fold change (FC) [13]: 0.49 | Activity [14]: inactive | Activity [16]: Active | fold change (FC) [17]: 0.82 | Activity [18]: 100% | Activity [19]: 90% | Activity [20]: Active | Emax [21]: 75% | Emax [22]: > 50% | Activity [23]: Active | Activity [24]: Active | fold change (FC) [25]: 0.3 | fold change (FC) [26]: 0.33 | Activity [27]: Dose-dependent-effect | Emax [28]: 50%
SMILES: Cc1ncsc1-c1ccc(CNC(=O)[C@H]2C[C@H](O)CN2C(=O)[C@H](NC(=O)CCCCCCC(=O)N2CCC(F)(Cn3cnc(-c4ccc(F)cn4)c3-c3ccnc4[nH]ccc34)CC2)C(C)(C)C)cc1
Activity [7]: Not active; Compound Showed Weak Degradation | Activity [8]: Not active; Compound Showed Weak Degradation | Activity (HEK293): Active | Activity [15]: Not active; Compound Showed Weak Degradation | Activity (MV4-11): Active | Activity [29]: Not active; Compound Showed Weak Degradation
